These results are taken from a melting point compilation (Tetko et al.; mined from patent text by program, amines drawn as free bases though some values may be those of a salt).

For the compound `O=C(CN1CCN(CC2CCn3c(nc4ccccc43)S2)CC1)N1CCCC1` (stereo unspecified), the melting point was 159 to 162 °C.
The value for `CC(=O)C1CC=C2C(CCC3=Cc4c(cnn4-c4ccc(F)cc4)CC32C)C1C(C)=O` (stereo unspecified) was 157 to 159 °C; that for `CCCCN1C(C)=C(C(=O)OCC)C(c2cc([N+](=O)[O-])ccc2OCC(=O)OCC)C(C(=O)OCC)=C1C` was 88 to 90 °C; that for `Cn1c2c(c3ccccc31)C(=O)NCC2` was 240 to 244 °C.
To `Cc1ncc(-c2cccc(Nc3ncnc4c3CCOc3ccccc3-4)c2)n1C` belongs 235 to 237 °C; to `COc1cc(C)c(C(=O)c2c(Cl)cccc2Cl)cc1OC(F)F`, 126 to 128 °C.
For `COC(=O)c1cc2nccnc2cc1N`, the melting point is 180 to 182 °C.
The value for `O=C(Cc1ccccc1)c1cc2c(c(Cl)c1Cl)OC(C(=O)O)C2` (stereo unspecified) was 146 °C; that for `O=C(Nc1cccc(S(=O)(=O)NC2CC2)c1)c1cnn2c(C(F)(F)F)cc(-c3ccc(Cl)c(Cl)c3)nc12` was 248 °C.
Take `CCOC(=O)c1ccc(NC(=O)c2ccc3c(c2)SCCC3(C)C)cc1`: the melting point fell in the range of 148 to 150 °C.
The value for `COc1ccc(NC(=O)[C@H]2[C@H](c3ccc(S(N)(=O)=O)cc3)C23CCCC3)c(OC)n1` (relative stereo) was 112 to 115 °C; that for `Cc1cc(I)ccc1OC=C1C=CC=CC1n1nnn(C)c1=O` (stereo unspecified) was 128 to 130 °C.
`O=C(CC[C@@H](C(=O)OCc1ccccc1)n1c2ccccc2c2ccccc21)OCCOC(=O)c1ccc(NC(=O)OCc2ccccc2)cc1`: the melting point turned out to be 45 °C.
To `O=C(Cc1ccc2c(c1)OCO2)N[C@H]1CC[C@H](CCN2CCN(c3nccc4c3OCC4)CC2)CC1` belongs 187 °C; to `CC(C)C1COCc2nc3c(N)nc4cc(OCC(=O)N5CCOCC5)ccc4c3n21` (stereo unspecified), 137 to 139 °C; to `CC(C)(c1cc(F)ccc1O)c1cc(Cl)ccc1O`, 125 °C.
For the compound `O=S1(=O)c2ccccc2Nc2nccnc21`, the melting point lay in the range of 316 to 318 °C.
As for `C=CCOc1ccc(C(=O)C=Cc2ccc(OC)c(OC)c2)cc1`, the melting point was in the range of 74.5 to 75 °C.
To `COC(=O)c1cnccc1C(=O)c1ccc(-n2ccnc2)cc1` belongs 135 to 137 °C; to `CCOC1CCC(=O)N1S(=O)(=O)c1ccccc1` (stereo unspecified), 112 to 113 °C.
The value for `Cc1ccc2nc3[nH]c(=O)[nH]c3cc2c1C` was more than 300 °C; that for `O=C(O)c1c2c(nc3ccc(F)cc13)-c1ccc(-c3ccc(F)cc3F)cc1CCC2` was more than 300 °C; that for `CC(C)(C)c1ccc(S(=O)(=O)N(Cc2cc(C(C)(C)C)c(O)c(C(C)(C)C)c2)c2cccnc2)cc1` was 155 to 156 °C.
Compound `CCCCCCCCCc1nnc(C2=C(O)c3ccccc3S(=O)(=O)N2C)o1` yielded a melting point of 61.5 to 62 °C.
With `CC(=O)Nc1cc(C)c(O)cc1C`, the melting point was 183 °C.
The value for `O=C(O)c1ccc(COCc2csc3nc(C(=O)NCc4cccc(C(F)(F)F)c4)[nH]c(=O)c23)cc1` was 261 to 263 °C; that for `CC(=O)Nc1ccc(/C=C/C(=O)NCC(=O)N(C)c2ccc(Cl)c(CBr)c2Cl)cn1` was 222 to 223 °C.
Regarding `N#Cc1ccc2ccnc(N)c2c1`, the melting point lay in the range of 183 to 186 °C.
Regarding `CC(C)(C)c1ncc(O)cn1`, the melting point amounted to 132 °C.
To `O=C(O)[C@@H]1CN(C(=O)N(c2ccccc2)c2cccc(Cl)c2)CCN1C(=O)N(c1ccccc1)c1cccc(Cl)c1` belongs 200 to 203 °C.
In the case of `CCCCCCCCCC#CCCCCCCCCCCCO`, the melting point lay within 38 to 39 °C.
The value for `CNC(=O)c1ccccc1Nc1nc(Nc2cc3c(cc2OC)CC(=O)N(CCCN2CCOCC2)CC3)ncc1Cl` was 92 to 100 °C.
The value for `CCOCc1nc(C(C)(C)O)c(C(=O)OCOC(=O)C(C)(C)C)n1Cc1ccc(-c2ccccc2C(=O)O)cc1` was 65 °C; that for `O=c1[nH]c2ccc(-c3cccc([N+](=O)[O-])c3)cc2s1` was 276 to 277 °C.
In turn, `O=C(c1cccc(C(F)(F)F)c1)N(CCCCc1cccnc1)C1=Nc2cccc3cccc1c23` gave a melting point of 122 to 123 °C.
In turn, `COC(=O)CCc1cc2cc(C(F)(F)F)ccc2n1S(=O)(=O)c1ccc2ncsc2c1` had a melting point of 130 to 132 °C.
Compound `Nc1c(F)c(N2CCC(n3ccnn3)CC2)c(F)c2c1c(=O)c(C(=O)O)cn2C1CC1` came in with a melting point of 274 to 276 °C.
The value for `Cc1ccc(-n2c(-c3ccccc3)ccc2-c2ccccc2)cc1` was 207 to 208 °C; that for `CC(C)c1nc2c(s1)C(=O)N(c1cccc(C(F)(F)F)c1)C2=O` was 80 °C; that for `CCN(CC)C(=O)CCC(=O)c1cccc(C)c1N` was 104 °C.
`c1c(N2CCC3(CC2)OCCO3)nc(N2CCNCC2)nc1N1CCC2(CC1)OCCO2` displayed a melting point of 122 to 126 °C.
`COc1ccc2c(=O)c(-c3ccccc3)c(SCc3ccccn3)oc2c1` had a melting point of 168 to 169 °C.
`CCOc1ccc2c(c1)C(C)(c1cc(NC(=O)CN(C)C)ccc1Cl)C(=O)N2S(=O)(=O)c1ccc(C(=O)NC(C)(C)C)cc1OC` (stereo unspecified) displayed a melting point of 150 °C.
In the case of `COc1cccc(NC(=O)c2ccccc2C(c2ccc(O)cc2)c2ccc(O)cc2)c1`, the melting point was in the range of 106 to 107 °C.
The compound `CC1(C)NC(=O)c2ccc(OCCBr)cc2O1` showed a melting point of 156 to 158 °C.
For the compound `CN(c1ncccc1C#N)C1CCN(Cc2ccccc2)CC1`, the melting point is 58 to 60 °C.
To `CC(=O)N(c1ccc(O)cc1)c1ccc2cc(O)ccc2c1` belongs 255 °C; to `N#Cc1cc(F)c(NC(=O)C(F)(F)F)c(F)c1`, 134 to 135 °C; to `CC(C)(C)C1CCC(=O)C(CC(=O)c2ccccc2)C1` (stereo unspecified), 127 to 129 °C.
As for `O=C(O)c1cnc2ccc(Cc3ccccc3)cc2c1`, the melting point is 203 to 205 °C.
The compound `Cc1noc(-c2cn(-c3cccc(-c4ccccc4OC(F)(F)F)c3)cn2)n1` had a melting point of 142 to 144 °C.
To `O=c1c2cccnc2c(-c2ccc(Cl)cc2)c2n1CCN2` belongs 260 to 262 °C; to `Cc1ccc(Cn2nc(CCCc3ccc(OC(C)(C)C(=O)O)cc3)[nH]c2=O)cc1C`, 146 to 150 °C; to `Cc1cc(Cl)cc(C(=O)NC2(C)CSC2)c1NC(=O)c1cc(C(F)(F)F)nn1-c1ncccc1Cl`, 238 to 241 °C.
The value for `Oc1ccc2c(c1)C13CCCCC1N(C2)N(CC1CC1)CC3` (single isomer, unassigned; (+)) was 151 to 153 °C; that for `CC(=O)NC1(c2ccc(C(C)N3CCN(c4ncccn4)CC3)cc2)CC1` (stereo unspecified) was 124 to 125 °C.
To `Cc1c(CO)ncnc1N1CCCCC1` belongs 79 to 81 °C; to `COC(=O)C(N)CSCc1ccccc1` (stereo unspecified), 84 to 87 °C; to `CC1=C(/C=C/C(C)=C/C=C/C(C)=C/C(=O)O)C(C)(C)CCC1=O`, 184 to 187 °C.
Compound `COc1c(N2CC3CCCC3(N)C2)c(F)cc2c(=O)c(C(=O)O)cn(C3CC3F)c12` (stereo unspecified) returned a melting point of 169 to 172 °C.
`O=C(O)CCC(=O)c1ccc(NC(=O)CCN2CCC(c3ccccc3)CC2)cc1`: the melting point lay in the range of 237 to 238 °C.
